According to patent US5262520A, “Peptides and antibodies that inhibit integrin-ligand binding” (The Scripps Research Institute, priority 1990, dated 1993):
Where no end group is shown, it is not given here.

Legend:
[1] = biological target: T1, ^125 I-fibrinogen with immobilized p1 peptide (Homo sapiens, UniProt P08514); experiment: Inhibition of 125I-fibrinogen binding to immobilized p1 peptide; settings: for inhibition of fibrinogen binding to immobilized p1 (in words): text summary of Table 7
T1 construct: for GPIIb from residue 296; made in house; no expression host
Protocol: Polypeptides p1, p1', and controls were immobilized on 96-well Immulon-2 microtiter plates (Dynatech Laboratories, VA). The peptides were added to the plates and maintained at 4 C for 24 hours after which the plates were washed with Hepes-Tyrode's buffer (pH 7.4) containing Tween-20. The plates were post-coated with 3% BSA for 1 hr. at 37° C. and then washed again. ^125 I-fibrinogen (50 μL at 50 nM) was allowed to bind to the peptide-coated wells for 24 hours at 22° C. which were then extensively washed and counted for bound radioactivity.
Cation dependence of binding was established in the presence of EDTA (5 mM). Two gamma-chain peptides of fibrinogen (HHLGGAKQAGDV and KYGGHHLGGAHQAGDV) inhibited the interaction of fibrinogen with immobilized pl. […] These observations are consistent with the hypothesis that RGD gamma-chain peptides interact with the same sites in GPIIb-IIIa.

GPIIb = biological target: T2, GPIIb (Homo sapiens, UniProt P08514); experiment: Chemical crosslinking of 125I-K16 to GPIIb on platelets; format: binding
T2 construct: endogenous in cells; host or cells: washed human platelets from fresh blood
Description: Platelets were isolated from fresh human blood collected into acid/citrate/dextrose by differential centrifugation followed by gel filtration on Sepharose 2B in divalent ion-free Tyrode's buffer, pH 7.3, containing 0.1% bovine serum albumin. See, Marguerie et al., J. Biol. Chem., 225:154-161 (1980).
Platelet binding of K16 followed the protocols previously described for measuring platelet interactions with adhesive proteins and with this and other peptides. See, Ginsberg et al., J. Biol. Chem., 260:3931-3936 (1985); Lam et al., Fed. Proc. Fed. Am. Soc. Exp. Biol., 44:1126 (1985); and Marguerie et al., supra. Briefly, platelets were suspended at 4×10^8 /ml in divalent ion-free Tyrode's albumin buffer. Unless otherwise specified, Ca^2+ was added to a final concentration of 1 mM. The platelet stimulus used was 0.5 unit/ml alpha-thrombin. In assays in which fibrinogen and thrombin were present, 30 nM D-phenylalanyl-L-prolyl-arginine ketone (Calbiochem, La Jolla, Ca.) was added to the platelet suspension 5 minutes after addition of thrombin and 5 minutes before addition of fibrinogen. The radiolabeled peptide was then added to […] stimulated or nonstimulated platelets at a concentration of 30 μM, and binding proceeded for 45 min at 22° C. The selected cross-linking agent was then added. The cross-linking agent used in this study, bis(sulfosuccinimidyl) suberate (BS^3), purchased from Pierce Chemical Co. was dissolved in PBS immediately prior to use and admixed with the platelets to a final concentration of 0.2 mM. The cross-linking reactions were terminated after 10 min at 22° C. by addition of 10 mM Tris, pH 7.0.
The cell-bound ligand was recovered by centrifugation through 20% sucrose, and the cells were extracted in PBS containing 1% Nonidet P40 and 10 mM N-ethylmaleimide (Sigma). Extrated proteins were precipitated with 10% trichloroacetic acid, and the pellet obtained after centriguation was washed three times with cold 85% ethanol. The cross-linked samples were analyzed by electrophoresis (SDS-PAGE) on polyacrylamide vertical slab gels in the buffer system of Laemmli, Nature, 227 […] (1970). For disulfide bond reduction, the samples were treated with 5% 2-mercaptoethanol. Gels were dried and autoradiograms were developed with Kodak X-Omat AR films. Molecular weights were estimated on the basis of electrophoretic mobility relative to standards obtained from Diversified Biotech (MA).
Cross-linked samples were immunoprecipitated using a monoclonal antibody designated PMI-1, which recognizes the heavy chain of GPIIb. Loftus et al., Proc. Natl. Acad. Sci. USA. 84:7114 (1987). […]

[2] = GPIIb:K16 complex, gel under reducing conditions, excised and counted

Albumin
% Inhibition of ^125 I-fibrinogen binding to p1 ([1]; inhibitor 2 μM): 12 ± 4% | inhibition of fibrinogen binding to immobilized p1 (in words) [1]: minimal inhibition

YVTAGRGDSPASSK [YVTAGRGDSPASSK]
inhibition at 200 µM ([1]; inhibitor 200 μM): 61 ± 16%

HHLGGAKQAGDV [HHLGGAKQAGDV]
inhibition at 200 µM ([1]; inhibitor 200 μM): 57 ± 11%

GRGESP [GRGESP]
inhibition at 200 µM ([1]; inhibitor 200 μM): 16 ± 7%

N=C(N)NCCC[C@H](N)C(=O)NCC(=O)N[C@@H](CC(=O)O)C(=O)N[C@@H](CO)C(=O)O [RGDS]
inhibition at 200 µM ([1]; inhibitor 200 μM): 52 ± 15%

KYGGHHLGGAKQAGDV [K16, peptide derived from fibrinogen gamma chain]
% Inhibition of ^125 I-fibrinogen binding to p1 ([1]; inhibitor 200 μM): 54 ± 12% | inhibition of fibrinogen binding to immobilized p1 (in words) [1]: inhibited | crosslinking of the radiolabeled peptide to the cells (GPIIb; 50-fold excess of nonlabeled K16, thrombin-stimulated platelets, FIG. 2A): abolished the crosslinking | radioactivity in the position of light chain of GPIIb (GPIIb; [2]): < 2% | radioactivity in the position of the heavy chain of GPIIb (GPIIb; [2]): 98% | increase of K16 crosslinking to GPIIb (GPIIb; thrombin stimulation relative to nonactivated platelets, 4 experiments): 12 fold

O=C(O)CN(CCN(CC(=O)O)CC(=O)O)CC(=O)O [EDTA]
% Inhibition of ^125 I-fibrinogen binding to p1 ([1]; inhibitor 5000 μM): 90 ± 8%

Fibrinogen
% Inhibition of ^125 I-fibrinogen binding to p1 ([1]; inhibitor 2 μM): 82 ± 1.2%
